The text below walks through data of ChEMBL document CHEMBL1142814, “Synthesis and preliminary biological evaluation of new anti-tubulin agents containing different benzoheterocycles” (Bioorg Med Chem Lett, 2005).

Molecules are shown by their SMILES. Bounds are passed on as bounds.

The target in test [1] is Tubulin beta chain (Bos taurus) (UniProt Q6B856). Put plainly: Inhibition of [3H]colchicine binding to 1 uM beta-tubulin at 2 uM.
The test system of test [2] is L1210. As to the kind of experiment: Concentration required to inhibit murine leukemia L1210 cell line proliferation. The format is functional, cell-based. As to conditions: Mus musculus.
Test [3] addresses Tubulin beta chain (Bos taurus). Put plainly: Concentration required to inhibit tubulin polymerization at 10 uM.
In test [4] the test system is FM3A. As to the kind of experiment: Concentration required to inhibit murine mammary carcinoma FM3A cell line proliferation. The format is functional, cell-based. Particulars: Mus musculus.
The test system of test [5] is CCRF-CEM. As to the kind of experiment: Concentration required to inhibit human T-lymphoblast CEM cell line proliferation. The format is functional, cell-based.
Test [6] deals with MOLT-4. Put plainly: Concentration required to inhibit human T-lymphoblast Molt4/C8 cell line proliferation. Format: functional, cell-based.
Test [7] addresses Tubulin beta chain (Bos taurus) (UniProt Q6B856). Put plainly: Inhibition of 1 uM [3H]colchicine binding to tubulin at 5 uM.

Tubulin beta chain (Bos taurus) (UniProt Q6B856), sequence (Q6B856 whole entry): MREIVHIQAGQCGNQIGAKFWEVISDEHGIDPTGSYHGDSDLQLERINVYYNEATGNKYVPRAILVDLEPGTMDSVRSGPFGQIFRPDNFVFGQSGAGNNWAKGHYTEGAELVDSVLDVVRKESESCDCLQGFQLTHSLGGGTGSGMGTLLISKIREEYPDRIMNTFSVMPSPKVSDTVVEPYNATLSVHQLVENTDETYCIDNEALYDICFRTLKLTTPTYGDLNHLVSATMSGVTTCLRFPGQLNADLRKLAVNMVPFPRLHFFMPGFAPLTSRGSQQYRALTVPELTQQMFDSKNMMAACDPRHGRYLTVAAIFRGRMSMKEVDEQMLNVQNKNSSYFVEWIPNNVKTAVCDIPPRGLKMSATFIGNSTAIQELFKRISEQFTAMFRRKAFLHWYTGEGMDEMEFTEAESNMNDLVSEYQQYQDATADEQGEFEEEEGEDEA

As to `COc1cc(C(=O)c2sc3cc(C)ccc3c2N)cc(OC)c1OC`, the inhibition in test [1] was 77%; in test [7] it was 88%. The IC50 is 0.058 µM in test [2]; 1.3 µM in test [3]; 0.071 µM in test [4]; 0.024 µM in test [5]; 0.034 µM in test [6].

Consider `COc1cc(C(=O)c2oc3ccccc3c2N)cc(OC)c1OC`, for which the IC50 in test [2], in test [4], in test [5] and in test [6] was greater than 10 µM throughout.

For the molecule `COc1cc(C(=O)c2[nH]c3ccccc3c2N)cc(OC)c1OC`, the IC50 in test [2], in test [4], in test [5] and in test [6] was greater than 10 µM throughout.

With `COc1ccc(C(=O)c2c(N)sc3ccccc23)cc1`, the IC50 was greater than 10 µM in test [2], greater than 10 µM in test [4], greater than 10 µM in test [5] and 9.2 µM in test [6].

Consider `COc1cc(C(=O)c2sc3ccccc3c2N)cc(OC)c1OC`, for which the IC50 amounted to 0.35 µM in test [2]; 4.2 µM in test [3]; 1.8 µM in test [4]; 0.31 µM in test [5]; 0.29 µM in test [6]. In test [7], this molecule showed an inhibition of 39%.

As for `COc1cc(C(=O)c2c(N)sc3ccccc23)cc(OC)c1OC`, the IC50 in test [3] was determined as 3.1 µM; in test [6], 0.073 µM. Further, the inhibition in test [7] is 57%.

With `COc1ccc(C(=O)c2c(N)sc3ccccc23)cc1OC`, the IC50 is 3.7 µM in test [2], 4.7 µM in test [4], 1.7 µM in test [5] and 1.7 µM in test [6].

With `COc1cc(C(=O)c2c(N)sc3c2CCCC3)cc(OC)c1OC`, the IC50 is 2.24 µM in test [2]; greater than 40 µM in test [3]; 5.68 µM in test [4]; 2.15 µM in test [5]; 1.58 µM in test [6]. This molecule also showed an inhibition in test [7] of 3%.

In general, inhibition refers to the change of the read-out against control, counted positive when it falls. A lower inhibition goes with a response near the control. One may read the IC50 as the concentration that inhibits the measured activity by half. High values mean a need for much substance, low ones inhibition by little substance.
